The values below are quoted from earlier work in patent publication US20100209495A1, “GRANULATES, PROCESS FOR PREPARING THEM AND PHARMACEUTICAL PRODUCTS CONTAINING THEM” (Mylan Laboratories, Inc., priority 2008, published 2010).

The conditions of the data set: at 37° C.

On to `CC(O)(CS(=O)(=O)c1ccc(F)cc1)C(=O)Nc1ccc(C#N)c(C(F)(F)F)c1` (stereo not shown) [bicalutamide, N-[4-cyano-3-(trifluoromethyl)phenyl]-3-(4-fluorophenyl) sulfonyl-2-hydroxy-2-methyl-propanamide], for which the water solubility is listed as 5 mg/1000 ml.
